The term Kd denotes the concentration at which binding is half-saturated.

The experiment has as its target LFA-1 (CD11a/CD18, αLβ2 integrin) (Homo sapiens, UniProt P05107+P20701). The experiment can be described thus: Kd of unlabelled compound with XVA-FITC probe, flow cytometry on cells. The class given is cell-based.

LFA-1 (CD11a/CD18, αLβ2 integrin), sequence (P20701 26-1170): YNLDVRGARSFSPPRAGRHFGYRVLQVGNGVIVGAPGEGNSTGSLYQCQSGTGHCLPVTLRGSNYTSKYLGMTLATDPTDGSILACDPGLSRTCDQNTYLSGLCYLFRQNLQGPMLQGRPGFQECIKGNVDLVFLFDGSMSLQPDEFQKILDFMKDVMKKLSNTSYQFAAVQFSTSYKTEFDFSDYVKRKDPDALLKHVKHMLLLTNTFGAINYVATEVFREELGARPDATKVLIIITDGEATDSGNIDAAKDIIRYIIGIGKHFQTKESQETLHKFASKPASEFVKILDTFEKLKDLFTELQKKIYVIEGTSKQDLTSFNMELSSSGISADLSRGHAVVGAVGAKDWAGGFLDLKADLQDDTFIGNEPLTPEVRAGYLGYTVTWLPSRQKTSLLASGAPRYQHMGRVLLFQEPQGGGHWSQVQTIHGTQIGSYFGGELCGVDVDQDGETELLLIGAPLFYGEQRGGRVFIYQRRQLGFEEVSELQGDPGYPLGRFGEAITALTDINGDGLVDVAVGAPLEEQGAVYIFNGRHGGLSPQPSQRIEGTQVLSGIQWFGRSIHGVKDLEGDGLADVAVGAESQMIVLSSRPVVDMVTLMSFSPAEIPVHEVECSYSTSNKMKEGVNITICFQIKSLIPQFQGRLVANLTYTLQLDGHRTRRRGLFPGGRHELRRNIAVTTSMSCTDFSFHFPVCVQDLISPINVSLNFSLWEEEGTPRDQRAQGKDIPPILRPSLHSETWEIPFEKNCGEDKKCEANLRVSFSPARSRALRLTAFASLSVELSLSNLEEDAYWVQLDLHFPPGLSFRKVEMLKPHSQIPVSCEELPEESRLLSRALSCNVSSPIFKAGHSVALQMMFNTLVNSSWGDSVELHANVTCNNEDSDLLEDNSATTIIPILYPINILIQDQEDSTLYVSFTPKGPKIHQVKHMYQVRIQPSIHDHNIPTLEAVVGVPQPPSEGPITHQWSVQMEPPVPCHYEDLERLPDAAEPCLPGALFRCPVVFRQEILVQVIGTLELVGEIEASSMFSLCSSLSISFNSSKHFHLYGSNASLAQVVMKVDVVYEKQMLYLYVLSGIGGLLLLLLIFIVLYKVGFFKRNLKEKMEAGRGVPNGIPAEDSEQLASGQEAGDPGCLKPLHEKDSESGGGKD
LFA-1 (CD11a/CD18, αLβ2 integrin), sequence (P05107 23-769): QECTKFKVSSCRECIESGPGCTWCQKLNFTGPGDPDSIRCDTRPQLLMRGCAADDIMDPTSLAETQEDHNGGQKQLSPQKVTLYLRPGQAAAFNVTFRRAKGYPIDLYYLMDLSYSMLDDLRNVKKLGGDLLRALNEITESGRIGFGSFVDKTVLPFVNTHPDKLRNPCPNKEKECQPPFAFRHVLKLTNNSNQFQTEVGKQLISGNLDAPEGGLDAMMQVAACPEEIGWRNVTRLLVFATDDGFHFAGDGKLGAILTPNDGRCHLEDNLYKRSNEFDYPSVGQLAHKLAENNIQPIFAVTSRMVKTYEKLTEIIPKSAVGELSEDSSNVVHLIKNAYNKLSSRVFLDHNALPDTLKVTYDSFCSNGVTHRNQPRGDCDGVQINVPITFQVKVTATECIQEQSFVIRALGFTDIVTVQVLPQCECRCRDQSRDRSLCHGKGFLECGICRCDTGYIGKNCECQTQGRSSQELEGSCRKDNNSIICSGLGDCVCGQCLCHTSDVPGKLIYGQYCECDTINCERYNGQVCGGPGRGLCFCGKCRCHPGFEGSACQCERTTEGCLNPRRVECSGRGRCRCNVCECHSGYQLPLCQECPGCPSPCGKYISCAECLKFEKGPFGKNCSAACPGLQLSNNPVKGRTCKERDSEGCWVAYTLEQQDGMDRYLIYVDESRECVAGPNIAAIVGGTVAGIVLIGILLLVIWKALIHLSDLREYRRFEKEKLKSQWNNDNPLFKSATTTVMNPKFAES

In turn, `O=C(NCc1cccc(O)c1)c1cc(Cl)c(C(=O)N[C@@H](CNC(=O)c2cc(O)cc(O)c2)C(=O)O)c(Cl)c1` [XVA-143, (S)-2-[4-(3-hydroxybenzylcarbamoyl)-2,6-dichlorobenzoylamino]-3-(3,5-dihydroxybenzoylamino) propionic acid] came in with a Kd of 0.08 to 0.09 µM.
